# In patent publication US6403647B1, “Pulsed administration of compositions for the treatment of blood disorders” (priority 1996, dated 2002):
# Tests used:
# Bfu-e = test: Erythroid colony (Bfu-e) proliferation with maximal growth factors, normal subject; assay type: cell-based, human; settings: 0.1 mM
# From the text: Erythroid cells were obtained, as described in Example 1, from a normal subject and cultured on semi-solid medium in the presence of a maximal amount of erythroid growth factors including IL-6, GM-CSF, SCF and EPO. Erythroid proliferation in the presence of these factors is expected to be maximal and, therefore, any increases observed would be significant.
# [1] = Total hemoglobin in phlebotomized anemic baboons, continuous versus pulse therapy; assay type: in vivo, baboon; settings: continuous, 700 mg/kg/day for 5 days; phlebotomized baboon; from 6.7
# Protocol: Therapy was administered to anemic baboons who were being phlebotomized 5-10 ml/kg of blood per day on a continuous basis. EPO was administered daily at 300 U/kg/dose. Arginine butyrate was administered daily at 700 mg/kg/day for 5 days and phenoxyacetic acid at 500 mg/kg/day daily over 8 hours and at 1000 mg/kg/day for 24 hours/day daily for five days each. […] With continuous arginine butyrate treatment, hemoglobin remained essentially stable at 6.7 to 6.9 gram/dl. With continuous treatment with phenoxyacetic acid, hemoglobin levels remained stable at 7.0 gram/dl to 6.9 gram/dl during 8 hour therapy and declined from 6.8 to 4.5 when the drug was given for 24 hours per day for 5 days.
# [2] = DNA fragmentation assays (cell viability); assay type: cell-based
# From the text: Normal cell viability, the viability of an untransformed or uninfected cell, can be determined from analyzing the effects of the composition on one or more biological processes of the cell. Detrimental interference with one or more of these cellular processes becomes significant when the process becomes abnormal. Examples of quantitatable and qualifiable biological processes include the processes of cell division, protein synthesis, nucleic acid (DNA or RNA) synthesis, nucleic acid (principally DNA) fragmentation and apoptosis. Others processes include specific enzyme activities, the activities of the cellular transportation systems such as the transportation of amino acids by system A (neutral), system B (acidic) or system C (basic), and the expression of a cell surface protein. […] Abnormal cell division, for example, can be mitosis which occurs too rapidly, as in a malignancy, or unstably, resulting in programmed cell death or apoptosis, detected by increased DNA degradation. The determination of abnormal cell viability can be made on comparison with untreated control cells. Compositions preferably increase normal cell viability. Increased cell viability can be determined by those of ordinary skill in the art using, for example, DNA fragmentation analysis. […] Determinations of increased or decreased viability can also be concluded from an analysis of the results of multiple different assays. Where multiple tests provide conflicting results, accurate conclusions can still be drawn by those of ordinary skill based upon the cell type, the correctness or correlation of the tests with actual conditions and the type of composition.
# Patients with blood disorders are typically quite infirm with, for example, iron damaged organs and systems. Most treatments further tax the patient's already frail health in an effort to combat the disorder.
# [3] = Conventional versus pulse treatment of a sickle cell patient; assay type: in vivo, human
# Protocol: Conventional treatment: A patient with sickle cell disease was tested with arginine butyrate at 750 mg/kg. Drug was administered by infusion for 10-16 hours per day and 5 days/week. […] After 150 days, total HbF declined to about 10%.
# Pulse treatment: Treatment of the same sickle cell patient as above was changed from weekly to pulse administration of arginine butyrate about one year later (FIG. 5B). Arginine butyrate was administered by infusion at 500 to 750 mg/kg for 4 days for about 10-16 hours per day. After the 4 day regimen, drug was withheld for 10 days before treatment was repeated. This regimen was continued for about 5 months and percent total fetal hemoglobin increased to over 20%. This level was maintained until treatment was discontinued. Hemoglobin F levels above 20% are generally considered to be sufficient to eliminate symptoms associated with sickle cell disease.
substance,measurement,setting,value
arginine butyrate,"Bfu-e colonies, % of control",Bfu-e,16 % of control
same,total hemoglobin after treatment,[1],6.9 gram/dl
same,cell viability in DNA fragmentation assays,[2],decrease cell viability
same,percent total HbF,"[3]; conventional treatment, after 150 days",about 10%
same,percent total HbF,"[3]; conventional, 750 mg/kg infusion 10-16 hours per day, 5 days/week, from 3%",15-18%
same,percent total fetal hemoglobin,"[3]; pulse, 500 to 750 mg/kg for 4 days, 10 days withheld, about 5 months",over 20%
